# PMC9964319, “Half-Sandwich Rhodium Complexes with Releasable N-Donor Monodentate Ligands: Solution Chemical Properties and the Possibility for Acidosis Activation” (Pharmaceutics, 2023)
# Where two headings read alike, the source gives them in different places.
# How the values were obtained:
# [1] = Formation constants of mixed-ligand half-sandwich complexes (UV-vis and 1H NMR); assay type: physicochemical; details: aqua complex + monodentate ligand; I = 0.10 M (KCl); t = 25.0 °C; UV-vis and 1H NMR
# Method: NMR spectroscopic studies were carried out on a Bruker Avance III HD Ascend 500 Plus instrument. For the aqueous samples, ^1H NMR spectra were recorded with the WATERGATE water suppression pulse scheme using DSS internal standard. The highest peak of DSS was 0.00 ppm. The measurement was very similar to the UV-vis measurement since the complex–to–monodentate ligand ratio was also between 0–10 equivalents; the spectra were recorded after the given waiting time. […] This technique was useful in those cases where no spectral change was visible during the UV-vis titrations.
# In both measurement methods, the formation constant (K) was obtained using the computer program PSEQUAD [38].
# It is worthwhile to mention that the liberation of the bidentate ligand was not detected even at higher monodentate ligand excess (~10), which means that the disruption of the bond between the bidentate ligand and the metal center is not feasible under these conditions. The calculated formation constants are compared in Figure 5 and are collected in Table S2. The formation of the mixed-ligand complexes was not detected in three cases under the applied conditions, namely [Ru(p-cym)(en)(mim)]^2+, [Ru(p-cym)(phen)(mim)]^2+, and [Ru(p-cym)(en)(Py)]^2+. For these complexes, only a higher limit of the formation constant could be given, assuming that a maximum of 5% of the complex would form (limit of detection) under the conditions used for ^1H NMR spectroscopy. Based on Figure 5, the following trends are observed in the formation constants: (i) [RhCp*(en)(H2O)]^2+ and [RhCp*(phen)(H2O)]^2+ have a stronger monodentate ligand-binding ability than the Ru(p-cym) analogs; (ii) the formation constants of the [Ru(p-cym)(8HQH-1)(N)]^+ complexes are similar or somewhat higher than those of the RhCp* analogs; (iii) a stability trend for the monodentate ligand: mim > bim > Py (iv) and the bidentate ligand: 8HQH-1 > phen ≥ en can be seen.
# [2] = Proton dissociation constants of the coordinated water in [M(arene)(N,N/O)(H2O)]2+/+ complexes (UV-vis titration)
# Source text: The proton dissociation of the aqua ligand in the [M(arene)(N,N/O)(H2O)]^2+/+ complexes (Scheme 2) results in the inert mixed-hydroxido species (general formula: [M(arene)(N,N/O)(OH)]^+/0).
# [3] = test system: Colo320 human colon adenocarcinoma cell line (doxorubicin-resistant); test: MTT assay, cytotoxicity at pH 6 and 7; assay type: cell-based; details: Colo320, 72 h incubation, read-out: IC50
# Method: (§1) All cell culture reagents were obtained from Sigma-Aldrich (Merck KGaA, Darmstadt, Germany) and plasticware from Sarstedt (Nümbrecht, Germany). Human colonic adenocarcinoma cell lines Colo205 (catalog number: ATCC-CCL-222) and its doxorubicin-resistant counterpart Colo320 (catalog number: ATCC-CCL-220.1) were purchased from LGC Promochem (Teddington, UK). The cells were cultured in RPMI 1640 medium supplemented with 10% heat-inactivated fetal bovine serum, 2 mM L-glutamine, 1 mM sodium pyruvate, and 100 mM HEPES buffer, adjusting the pH to 6.0 or 7.0. The cells were incubated at 37 °C in a 5% CO2–95% air atmosphere. The semiadherent human colon cancer cells were detached with Trypsin-Versene solution for 5 min at 37 °C.
# (§2) The solutions were freshly prepared prior to measurements (see Section 2.1). […] Firstly, these samples were diluted in complete culture medium; then, two-fold serial dilutions of the compounds were prepared in 100 μL of RPMI 1640, horizontally. The semiadherent colonic adenocarcinoma cells were treated with Trypsin-Versene solution. They were adjusted to a density of 1 × 10^4 cells in 100 μL of RPMI 1640 medium and were added to each well, with the exception of the medium control wells. The final volume of the wells containing compounds and cells was 200 μL. Samples were triplicated. The pH of the medium was adjusted to 6.0 or 7.0.
# (§3) The culture plates were incubated at 37 °C for 72 h; at the end of the incubation period, 20 μL of MTT solution (from a stock solution of 5 mg/mL) was added to each well. After incubation at 37 °C for 4 h, 100 μL of SDS solution (10% in 0.01 M HCI) was added to each well, and the plates were further incubated at 37 °C overnight. Cell growth was determined by measuring the optical density (OD) at 540/630 nm with a Multiscan EX ELISA reader (Thermo Labsystems, Cheshire, WA, USA). […] Curves were fitted using GraphPad Prism software (2022, version 9.4.1, Graphpad Software (LLC) d.b.a Dotmatics, San Diego, CA, USA) using the sigmoidal dose–response model (comparing variable and fixed slopes).
# (§4) The pH-dependent solution speciation of the selected mixed-ligand complexes is an important feature in the hypothesized mechanism of action, and the modeling of acidosis is necessary for the in vitro anticancer assays. In order to find out the cytotoxicity difference based on the pH of the medium, cytotoxic activity was determined at pH 6 and 7 by MTT assay in two human colon adenocarcinoma cell lines (doxorubicin-sensitive Colo205 and doxorubicin-resistant Colo320). […] The mixed-ligand complexes were prepared prior to the measurements, as was already described in Section 2.1. With this method, the effect of the different counter ions could be avoided, and a more adequate comparison of the mixed-ligand complexes could be conducted.
# [4] = test system: Colo205 human colon adenocarcinoma cell line (doxorubicin-sensitive); test: MTT assay, cytotoxicity at pH 6 and 7; assay type: cell-based; details: Colo205, 72 h incubation, read-out: IC50
# Method: as §1, §2, §3, §4
# [5] = test system: E. coli ATCC 25922 (sensitive); test: Antibacterial assay, MIC in 96-well plates at different pH; assay type: cell-based; details: E. coli sensitive, after one day, read-out: MIC
# Source text: (§5) The antibacterial effect was studied in two Gram-positive and in two Gram-negative strains. The Gram-positive S. aureus ATCC 25923 (ATCC, Manassas, VA, USA) is a methicillin-susceptible reference bacterial strain, while S. aureus 272123 is a clinical isolate and resistant to methicillin and ofloxacin (MRSA), which was given by Prof. Dr. Leonard Amaral (Institute of Hygiene and Tropical Medicine, Lisbon, Portugal). The Gram-negative strains were E. coli ATCC 25922 (ATCC, Manassas, VA, USA), which is sensitive to antibiotics, and E. coli 32313 (provided by the Institute of Clinical Microbiology, University of Szeged, Hungary), which is resistant to different antibiotics (trimethoprim/sulfamethoxazole, gentamicin, ciprofloxacin, and norfloxacin).
# (§6) The minimum inhibitory concentrations (MICs) of the compounds were determined in 96-well plates based on the Clinical and Laboratory Standard Institute guidelines. The compounds were diluted in 100 μL of Mueller Hinton broth. Then, an overnight bacterial culture diluted 10,000 times in 100 μL of medium was added to each well, with the exception of the medium control wells. For each strain and each tested compound, four pH values were set (5, 6, 7, and 8). Each sample was triplicated.
# [6] = test system: S. aureus ATCC 25923 (methicillin-susceptible); test: as above; assay type: cell-based; details: S. aureus sensitive, after one day, read-out: MIC
# Source text: as §5, §6
# S. aureus 272123 (MRSA) = test: as above; assay type: cell-based; details: read-out: MIC
# Source text: as §5, §6
# [7] = test system: E. coli 32313 (resistant); test: as above; assay type: cell-based; details: E. coli resistant, after one day, read-out: MIC
# Source text: as §5, §6
# [8] = pH 6, listed as [RhCp*(phen)Cl]Cl +Py
# [9] = pH 7, listed as [RhCp*(phen)Cl]Cl +Py
structure (smiles),measurement,setting,value
Cc1c(C)c(C)[c-](C)c1C.[Rh+2][O]c1cccc2cccnc12.c1ccc2[nH]cnc2c1 [[RhCp*(8HQH-1)(H2O)]+ + bim],Formation constant logK of mixed-ligand complex,[1],3.4 ± 0.1
Cc1c(C)c(C)[c-](C)c1C.O.[O-]c1cccc2cccnc12.[Rh+3] [[RhCp*(8HQH-1)(H2O)]+],pKa of the coordinated water molecule,[2],10.6±0.1
Cc1c(C)c(C)[c-](C)c1C.[Cl-].[Rh+2][O]c1cccc2cccnc12.c1ccncc1 [[RhCp*(8HQH−1)Cl] +Py],IC50,[3]; pH 6,6.2 ± 0.5 µM
same,IC50,[3]; pH 7,5.9 ± 0.1 µM
same,IC50,[4]; pH 6,7.2 ± 0.4 µM
same,IC50,[4]; pH 7,7.3 ± 0.3 µM
same,Formation constant logK of mixed-ligand complex,[1],3.0 ± 0.1
same,MIC,[5]; pH 6,>100 µM
same,MIC,[5]; pH 7,>100 µM
same,MIC,[6]; pH 7,12.5 µM
same,MIC,"S. aureus 272123 (MRSA); pH 6, after one day",50 µM
same,MIC,"S. aureus 272123 (MRSA); pH 7, after one day",12.5 µM
same,MIC,[7]; pH 6,>100 µM
same,MIC,[7]; pH 7,>100 µM
Cc1c(C)c(C)[c-](C)c1C.[Cl][Rh+][O]c1cccc2cccnc12 [[RhCp*(8HQH−1)Cl]],IC50,[3]; pH 6,6.1 ± 0.2 µM
same,IC50,[3]; pH 7,3.3 ± 0.1 µM
same,IC50,[4]; pH 6,8.1 ± 0.5 µM
same,IC50,[4]; pH 7,8.8 ± 0.4 µM
same,MIC,[5]; pH 5,> 100 µM
same,MIC,[5]; pH 6,>100 µM
same,MIC,[5]; pH 7,>100 µM
same,MIC,[5]; pH 8,> 100 µM
same,MIC,[6]; pH 7,12.5 µM
same,MIC,[6]; pH 8,12.5 µM
same,MIC,"S. aureus 272123 (MRSA); pH 5, after one day",50 µM
same,MIC,"S. aureus 272123 (MRSA); pH 6, after one day",12.5 µM
same,MIC,"S. aureus 272123 (MRSA); pH 7, after one day",12.5 µM
same,MIC,"S. aureus 272123 (MRSA); pH 8, after one day",12.5 µM
same,MIC,[7]; pH 5,> 100 µM
same,MIC,[7]; pH 6,>100 µM
same,MIC,[7]; pH 7,>100 µM
same,MIC,[7]; pH 8,> 100 µM
Cc1c(C)c(C)[c-](C)c1C.NCCN.[Rh+3].c1ccc2[nH]cnc2c1 [[RhCp*(en)(H2O)]2+ + bim],Formation constant logK of mixed-ligand complex,[1],3.3 ± 0.2
Cc1c(C)c(C)[c-](C)c1C.[Rh+3].c1ccncc1.c1cnc2c(c1)ccc1cccnc12 [[RhCp*(phen)(Py)]^2+],Formation constant logK of mixed-ligand complex,[1],4.1 ± 0.1
same,MIC,[5]; pH 5,> 100 µM
same,MIC,[5]; [8],>100 µM
same,MIC,[5]; [9],>100 µM
same,MIC,[5]; pH 8,> 100 µM
same,MIC,[6]; [9],>100 µM
same,MIC,[6]; pH 8,> 100 µM
same,MIC,"S. aureus 272123 (MRSA); pH 5, after one day",> 100 µM
same,MIC,"S. aureus 272123 (MRSA); pH 6, after one day, listed as [RhCp*(phen)Cl]Cl +Py",>100 µM
same,MIC,"S. aureus 272123 (MRSA); pH 7, after one day, listed as [RhCp*(phen)Cl]Cl +Py",>100 µM
same,MIC,"S. aureus 272123 (MRSA); pH 8, after one day",> 100 µM
same,MIC,[7]; pH 5,> 100 µM
same,MIC,[7]; [8],>100 µM
same,MIC,[7]; [9],>100 µM
same,MIC,[7]; pH 8,> 100 µM
Cc1c(C)c(C)[c-](C)c1C.[Rh+3].c1ccc2[nH]cnc2c1.c1cnc2c(c1)ccc1cccnc12 [[RhCp*(phen)(bim)]^2+],Formation constant logK of mixed-ligand complex,[1],4.9 ± 0.2
